Experimental findings from EP0823908B1, “PYRIDO[2,3-d]PYRIMIDINES FOR INHIBITING PROTEIN TYROSINE KINASE MEDIATED [sequence] PROLIFERATION” (Warner-Lambert Company LLC, priority 1995, dated 1996) are described below.

One assay concerns HT-29. Description: Soft agar colony formation, human colon adenocarcinoma cells. It counts as cell-based. The settings on record: HT-29, 336 h, colony formation in 0.3% soft agar, generally 2 weeks, read-out: Inhibition of Human Colon Adenocarcinoma IC50, HT-29. The method, then:
(§1) Three such human cell lines were identified as HCT-8, SW-620, and HT-29. In a typical assay, the cells are suspended in 0.3% soft agar containing an invention compound at various concentration levels, and are plated into six-well plates, each plate containing a 1% agar plug. The cell plates are incubated at 37°C in a humidified carbon dioxide (5%) incubator, generally for 2 weeks. At the end of the incubation period, colonies of cells are detected by staining the wells with 1 mg/mL of p-iodonitrotetrazolium violet. The cells are counted on an optical colony counter. […] TABLE III. Inhibition of Human Colon Adenocarcinoma IC50 (µM)

For another assay, the system named is SW-620. The description is as above. It is filed as cell-based. The following applies: SW-620, 336 h, colony formation in 0.3% soft agar, generally 2 weeks, read-out: Inhibition of Human Colon Adenocarcinoma IC50, SW-620. The method, then: as §1
For the next assay, the system named is HCT-8. Described as above. It is filed as cell-based. The settings on record: HCT-8, 336 h, colony formation in 0.3% soft agar, generally 2 weeks, read-out: Inhibition of Human Colon Adenocarcinoma IC50, HCT-8. How it is done:
as §1

Assay [1] concerns the target T1, Human EGF receptor tyrosine kinase (Homo sapiens, UniProt P00533).
T1 construct: Human EGF receptor tyrosine kinase was isolated from A431 epidermoid carcinoma cells; endogenous in cells; host or cells: A431 epidermoid carcinoma cells
Description: EGF receptor tyrosine kinase enzyme assay (substrate peptide phosphorylation). It counts as biochemical. The following applies: read-out: EGF-FL IC50.

A further assay concerns the target T2, C-src kinase (Homo sapiens, UniProt P12931).
T2 construct: made in house; host or cells: baculovirus infected insect cells
Description: C-src kinase assay (poly GluTyr substrate). It counts as biochemical. The following applies: read-out: C-src TK IC50.

For assay [2], the target named is T3, human FGF-1 (flg) receptor tyrosine kinase (Homo sapiens, UniProt P11362).
T3 construct: amplify a fragment of DNA that codes for the intracellular tyrosine kinase domain; made in house; host or cells: SF9 insect cells (baculovirus)
As to the kind of experiment: FGF receptor tyrosine kinase assay (32P incorporation into glutamate-tyrosine co-polymer). The following applies: read-out: FGFr-TK IC50. It counts as biochemical. The method, boiled down:
(§2)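 32P transfer from γ32P-ATP (50 µM ATP) to poly(Glu,Tyr) 4:1 was measured over 10 min at 25°C and counted after TCA precipitation onto filters, minus the no-enzyme background. Enzyme was baculovirus/SF9 lysate of the kinase domain, preincubated 10 min with inhibitor in Hepes pH 7.0, MnCl2, vanadate.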

Assay [3] has as its target T4, mouse PDGF-β receptor tyrosine kinase (Mus musculus, UniProt P05622).
T4 construct: amplify a fragment of DNA that codes for the intracellular tyrosine kinase domain; made in house; host or cells: SF9 insect cells (baculovirus)
Description: PDGF receptor tyrosine kinase assay (32P incorporation into glutamate-tyrosine co-polymer). It is filed as biochemical. The following applies: read-out: PDGFr-TK IC50. The method, boiled down:
as §2

The subject of another assay is PDGF receptor. As to the kind of experiment: PDGF receptor autophosphorylation in rat aorta smooth muscle cells. It counts as cell-based. The following applies: PDGF-BB 30 ng/mL for 5 minutes after 2 hours with compound; read-out: Inhibition of PDGF-Stimulated Receptor Auto Phosphorylation in Rat Aortic Smooth Muscle Cells (IC50). The method, then:
Rat aorta smooth muscle cells (RASMC) were isolated from the thoracic aorta of rats and explanted according to the method of Ross, J. Cell. Biol., 30:172-186 (1971). Cells were grown in Dulbecco's modified Eagle's medium (DMEM, Gibco) containing 10% fetal calf serum (FBS, Hyclone, Logan, Utah), 1% glutamine (Gibco) and 1% penicillin/streptomycin (Gibco). Cells were identified as smooth muscle cells by their "hill and valley" growth pattern and by fluorescent staining with a monoclonal antibody specific for SMC ∝-actin (Sigma). RASMC were used between passages 5 and 20 for all experiments. Test compounds were prepared in dimethylsulfoxide (DMSO) in order to achieve consistency in the vehicle and to ensure compound solubility. Appropriate DMSO controls were simultaneously evaluated with the test compounds.
RASMC were grown to confluency in 100 mm dishes. Growth medium was removed and replaced with serum-free medium and cells were incubated at 37°C for an additional 24 hours. Test compounds were then added directly to the medium and cells incubated for an additional 2 hours. After 2 hours, PDGF-BB was added at a final concentration of 30 ng/mL for 5 minutes at 37°C to stimulated autophosphorylation of the PDGF receptor. Following growth factor treatment, the medium was removed, and cells were washed with cold phosphate-buffered saline and immediately lysed with 1 mL of lysis buffer (50 mM HEPES[pH 7.5], 150 mM NaCl, 10% glycerol, 1% Triton X-100, 1 mM EDTA, 1 mMEGTA, 50 mM NaF, 1 mM sodium orthovanadate, 30 mM p-nitrophenyl phosphate, 10 mM sodium pyrophosphate, 1 mM phenylmethyl sulfonyl fluoride, 10 µg/mL aprotinin, and 10 µg/mL leupeptin). Lysates were centrifuged at 10,000 × g for 10 minutes. […] Following the incubation, protein-A-sepharose beads were added for 2 hours with continuous mixing, and immune complexes bound to the beads washed four times with 1 mL lysis wash buffer. Immune complexes were solubilized in 30 µL of Laemmli sample buffer and electrophoresed in 4-20% SDS polyacrylamide gels. Following electrophoresis, separated proteins were transferred to nitrocellulose and immunoblotted with anti-phosphotyrosine antiserum. […] IC50 values were generated from the densitometric data.

Another assay relates to transplanted tumors. As to the kind of experiment: Transplanted tumor assay. It counts as in vivo. The settings on record: F1 hybrid mice; compound generally by infusion by tail tether. The method, then:
F1 hybrid mice were used in the assay. The mice receive ascites fluid or dilutions of tumor brei on Day 0. A sample of the inocula is incubated in thioglycolate media as a check for gross contamination of the tumor material. After all test animals are inoculated with tumors, they are randomized for the assay. Control animals receive vehicle, while treated animals receive an invention compound dissolved in the vehicle, generally by infusion by tail tether. All animals are monitored daily for acute toxicity and other clinical signs. Survival is checked daily for the control group and treated group. The assay generally is continued for 60 days, at which time all surviving animals are euthanized.

T2 sequence (P12931 whole entry): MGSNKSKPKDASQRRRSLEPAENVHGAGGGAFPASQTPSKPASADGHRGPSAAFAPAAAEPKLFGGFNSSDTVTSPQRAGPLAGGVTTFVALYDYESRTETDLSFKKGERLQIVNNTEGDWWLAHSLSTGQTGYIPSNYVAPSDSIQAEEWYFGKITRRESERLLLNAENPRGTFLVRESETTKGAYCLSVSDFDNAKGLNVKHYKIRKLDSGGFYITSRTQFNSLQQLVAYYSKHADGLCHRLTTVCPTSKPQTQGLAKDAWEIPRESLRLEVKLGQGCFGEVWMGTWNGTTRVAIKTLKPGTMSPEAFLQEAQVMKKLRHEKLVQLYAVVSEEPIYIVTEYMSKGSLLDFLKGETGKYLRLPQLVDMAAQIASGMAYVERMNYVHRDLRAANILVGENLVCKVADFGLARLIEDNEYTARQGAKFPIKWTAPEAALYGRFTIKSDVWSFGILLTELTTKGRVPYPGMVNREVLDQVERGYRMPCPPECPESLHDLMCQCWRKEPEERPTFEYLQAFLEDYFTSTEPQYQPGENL
T3 sequence (P11362 478-767 limits assumed): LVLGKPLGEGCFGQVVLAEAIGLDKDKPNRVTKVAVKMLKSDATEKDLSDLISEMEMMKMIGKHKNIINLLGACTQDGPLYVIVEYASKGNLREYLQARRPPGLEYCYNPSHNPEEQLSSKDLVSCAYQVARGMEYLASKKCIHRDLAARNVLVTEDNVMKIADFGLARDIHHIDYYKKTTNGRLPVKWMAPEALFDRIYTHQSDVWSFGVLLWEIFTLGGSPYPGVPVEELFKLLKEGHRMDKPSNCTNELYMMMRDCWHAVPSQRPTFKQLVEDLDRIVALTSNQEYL
T4 sequence (P05622 599-961 limits assumed): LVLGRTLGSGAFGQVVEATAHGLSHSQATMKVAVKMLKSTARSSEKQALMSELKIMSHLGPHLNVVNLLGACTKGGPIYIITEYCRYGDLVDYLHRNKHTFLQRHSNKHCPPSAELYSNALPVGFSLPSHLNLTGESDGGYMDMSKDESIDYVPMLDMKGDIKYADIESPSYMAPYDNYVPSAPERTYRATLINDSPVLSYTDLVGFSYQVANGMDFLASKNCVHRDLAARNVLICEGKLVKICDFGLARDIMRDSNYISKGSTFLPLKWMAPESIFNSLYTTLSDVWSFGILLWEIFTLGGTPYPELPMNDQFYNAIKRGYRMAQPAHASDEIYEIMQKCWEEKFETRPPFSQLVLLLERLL
T1 sequence (P00533 25-1210): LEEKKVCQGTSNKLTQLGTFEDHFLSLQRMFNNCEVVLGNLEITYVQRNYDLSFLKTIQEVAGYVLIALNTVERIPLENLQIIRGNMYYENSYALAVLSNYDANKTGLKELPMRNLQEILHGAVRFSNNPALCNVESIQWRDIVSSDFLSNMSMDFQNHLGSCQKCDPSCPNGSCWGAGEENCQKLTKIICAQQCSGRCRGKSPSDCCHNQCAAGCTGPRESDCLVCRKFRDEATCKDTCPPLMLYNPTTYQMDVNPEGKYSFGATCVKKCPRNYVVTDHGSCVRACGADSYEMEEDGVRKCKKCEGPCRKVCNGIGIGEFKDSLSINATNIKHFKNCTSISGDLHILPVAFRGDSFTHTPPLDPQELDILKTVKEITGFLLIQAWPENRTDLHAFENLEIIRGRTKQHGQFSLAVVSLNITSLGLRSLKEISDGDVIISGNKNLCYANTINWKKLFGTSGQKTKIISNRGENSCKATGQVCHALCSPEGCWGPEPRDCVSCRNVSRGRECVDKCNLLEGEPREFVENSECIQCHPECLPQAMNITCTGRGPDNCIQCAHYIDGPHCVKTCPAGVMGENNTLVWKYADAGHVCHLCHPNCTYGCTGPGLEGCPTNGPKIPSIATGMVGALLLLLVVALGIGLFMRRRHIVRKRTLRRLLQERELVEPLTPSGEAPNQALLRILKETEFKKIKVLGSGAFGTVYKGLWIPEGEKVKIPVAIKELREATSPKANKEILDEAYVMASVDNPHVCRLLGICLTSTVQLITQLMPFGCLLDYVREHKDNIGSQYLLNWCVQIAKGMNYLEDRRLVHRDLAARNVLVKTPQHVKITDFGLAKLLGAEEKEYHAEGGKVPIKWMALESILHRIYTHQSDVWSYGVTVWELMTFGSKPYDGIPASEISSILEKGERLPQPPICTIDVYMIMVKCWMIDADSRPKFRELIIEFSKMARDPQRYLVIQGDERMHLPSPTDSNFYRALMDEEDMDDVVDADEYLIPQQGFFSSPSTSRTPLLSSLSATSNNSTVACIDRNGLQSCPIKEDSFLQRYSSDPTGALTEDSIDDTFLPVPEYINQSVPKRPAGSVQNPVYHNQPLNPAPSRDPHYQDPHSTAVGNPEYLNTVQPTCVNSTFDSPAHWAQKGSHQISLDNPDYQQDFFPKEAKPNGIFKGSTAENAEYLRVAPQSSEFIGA

For the compound `Cn1c(=O)c(-c2c(Cl)cccc2Cl)cc2cnc(Nc3ccncc3)nc21` [Example 58, 6-(2,6-Dichlorophenyl)-8-methyl-2-(pyridin-4-ylamino)-8H-pyrido[2,3-d]pyrimidin-7-one], the IC50 with HT-29 turned out to be 380 nM; in the assay with SW-620, 130 nM; in the assay on HCT-8, 170 nM; in assay [1], 119 nM; on C-src kinase it was 23 nM; in assay [2] it was 159 nM. Moreover, the IC50 is 71 nM in [3] and 13 nM in the assay with PDGF receptor.

For `Cn1c(=O)c(-c2c(Cl)cccc2Cl)cc2cnc(Nc3cccc(Br)c3)nc21` [Example 55, 2-(3-Bromophenylamino)-6-(2,6-dichlorophenyl)-8-methyl-8H-pyrido[2,3-d]pyrimidin-7-one], the IC50 in the assay with HT-29 was found to be 430 nM; in the assay with SW-620, 120 nM; in the assay with HCT-8, 110 nM; at C-src kinase, 59 nM; in assay [2], 2200 nM; in assay [3] it was 1800 nM. For the same compound, the IC50 in the assay with PDGF receptor came to 60 nM.

Consider `Cn1c(=O)c(-c2c(Cl)cccc2Cl)cc2cnc(N)nc21` [Example 12, 2-Amino-6-(2,6-dichlorophenyl)-8-methyl-pyrido[2,3-d]-pyrimidin-7(8H)-one], for which the IC50 worked out at 5600 nM in assay [1] and 9400 nM in the assay on PDGF receptor.

As to `CCN(CC)CCOc1ccc(Nc2ncc3cc(-c4c(Cl)cccc4Cl)c(=O)n(C)c3n2)cc1` [Example 80, 6-(2,6-Dichlorophenyl)-2-[4-(2-diethylaminoethoxy)-phenylamino]-8-methyl-8H-pyrido[2,3-d]pyrimidin-7-one], the “life span of animals infected with transplanted tumors” value in the assay with transplanted tumors is “increased the life span”.
